# Assay results published in article PMC5937946 (Biochemistry, 2017).
# Like-named read-outs stand apart in the source and are kept apart here.
# Experiments:
# [1] = test system: C. albicans cell-associated Cu; assay: ICP-MS of cell-associated Cu content; format: cell-based, Candida albicans; conditions: cells grown overnight with BCS
# [2] = test system: C. albicans (ATCC, SC5314)
# [3] = test system: C. albicans (ATCC, SC5314); assay: Antifungal susceptibility assay; conditions: for growth inhibition of C. albicans by metal ion alone: concentration range tested 0–100 µM, no peptide
# [4] = pH 7.4; cited from earlier work
# [5] = pH 7.4; cited from earlier work; remark: listed apart in the source
compound,measurement,setting,value
"Cc1cc(-c2ccc(S(=O)(=O)O)cc2)c2ccc3c(-c4ccc(S(=O)(=O)O)cc4)cc(C)nc3c2n1 [BCS, bathocuproine disulphonate]",decrease in cell-associated Cu compared to basal level,[1],70%
same,"concentrations well tolerated by C. albicans, ligand alone",[2],≤ 2000 µM
"O=S(=O)([O-])[O-].[Cu+2] [CuSO4, copper sulfate]",growth inhibition of C. albicans by metal ion alone,[3],Neither Cu(II) nor Fe(III) by themselves inhibited growth
"O=C(O)CN(CCN(CC(=O)O)CC(=O)O)CC(=O)O [EDTA, ethylenediaminetetraacetic acid]","concentrations well tolerated by C. albicans, ligand alone",[3]; initial susceptibility testing of the ligands alone,≤ 250 µM
"[Cl][Fe]([Cl])[Cl] [Fe(III), FeCl3]",growth inhibition of C. albicans by metal ion alone,[3],Neither Cu(II) nor Fe(III) by themselves inhibited growth
"O=S(=O)([O-])c1ccc(-c2nnc(-c3ccccn3)nc2-c2ccc(S(=O)(=O)[O-])cc2)cc1.[Na+].[Na+] [Fz, Ferrozine]",log KFz2Cu(I),[4],11.56
"O=C(O)CN(CC(=O)O)CC(=O)O [NTA, nitrilotriacetic acid]",log KNTA(Cu(II)),[5],10.68
